According to US20040049009A1, “Methods for improving the antagonistic/agonistic properties of peptidic antagonists/agonists of the corticotropin-releasing factor receptor (crfr)” (priority 2000, published 2004):

What was measured:
[1] = target: T1, rCRFR1 (Rattus norvegicus, UniProt P35353)
T1 sequence (P35353 24-415): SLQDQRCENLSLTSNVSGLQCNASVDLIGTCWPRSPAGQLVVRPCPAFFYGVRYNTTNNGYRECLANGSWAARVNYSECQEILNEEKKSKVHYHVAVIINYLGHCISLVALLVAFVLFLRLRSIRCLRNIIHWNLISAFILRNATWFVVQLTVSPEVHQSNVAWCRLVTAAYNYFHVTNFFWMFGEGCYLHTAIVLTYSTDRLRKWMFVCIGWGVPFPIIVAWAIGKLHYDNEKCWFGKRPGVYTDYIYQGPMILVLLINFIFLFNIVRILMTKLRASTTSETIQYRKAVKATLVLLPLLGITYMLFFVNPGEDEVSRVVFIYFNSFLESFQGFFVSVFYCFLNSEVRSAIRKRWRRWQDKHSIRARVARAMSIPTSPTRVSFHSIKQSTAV

[2] = target: T2, mCRFR2β (Mus musculus, UniProt Q60748); test: Intracellular cAMP accumulation in mCRFR2β-HEK 293 cells; assay type: cell-based; conditions: for Rel. intrinsic activity mCRFR2β: cAMP after 1 μM antagonist relative to Svg stimulation, 95% CI in parentheses; for Rel. potency of antagonist mCRFR2β: inhibition of cAMP accumulation after 1 nM Svg
T2 construct: expressed in transfected cells
Method: (§1) The SPA assay for rCRFR1 and rCRFR2β was performed in 96-well microtiter plates. […] After 1 hour shaking 250 mg wheat germ agglutinin beads per well were added and the plates were counted in a microbeta scintillation counter (Wallac). cAMP accumulation was measured using the SPA based Biotrack assay (Amersham).

[3] = tested on: C57BL/6J mice; test: Elevated plus-maze test, icv injection, oCRF-induced behavior; assay type: in vivo, mouse
Method: The antagonists and agonists were injected icv 30 and 15 min, respectively, before exposure to the elevated plus-maze for 5 min.
Ten min later the animals received 90 ng oCRF, and after 30 min, their behavior was recorded in the elevated plus maze test.
Alternatively, the elevated plus-maze behavior of C57BL/6J mice cannulated in the lateral ventricles (Radulovic, J., Rühmann, A., Liepold, T & Spiess, J. (1999) J.Neurosci. 19, 5016-5025) was investigated 15 min after injection of ovine CRF (oCRF) in the elevated plus-maze test (Radulovic, J., Kammermeier, J. & Spiess, J. (1998) Behav.Brain Res. 95, 179-189.).Peptide concentrations were determined by amino acid analysis (Radulovic, J., Rühmann, A., Liepold, T. & Spiess, J. (1999) J.Neurosci. 19, 5016-5025). CRF antagonists in aCSF as vehicle or vehicle alone were injected 30 min prior to oCRF administration. The behavior of the mice was recorded by a video camera connected to a PC and analyzed by the software VideoMot 2 (Technical &Scientific Equipment). The time spent, distance crossed, and number of entries in the open arms, closed arms, and center were recorded. The cannular placement was confirmed for each mouse by histological examination of the brains after methylene blue injection (Radulovic, J., Rühmann, A., Liepold, T. & Spiess, J. (1999) J.Neurosci. 19, 5016-5025). The behavioral data were analyzed by t tests or ANOVA followed by post hoc Scheffe's test for multiple comparisons. Data are presented as mean±SEM. The shift of preference from the open to the closed arms is interpreted as an increase of anxiety-like behavior. Locomotor activity is determined with this assay by the distance traveled.

[4] = Isoelectric focusing (IEF); assay type: physicochemical; conditions: determined by isoelectric focussing
Method: Isoelectric focusing (IEF) was carried out with a BioRad IEF cell system using Biorad IEF strips (11 cm, pH range from 3 to 10). The system was cooled to 20° C. Calibration was performed with 80 μg of Sigma IEF mix 3.6-9.3 dissolved in 200 μl water containing 0.2% Bio-Lyte® 3/10 and 0.1% NP40. Twenty five μg of each peptide was dissolved in 200 μl water containing 0.2% Bio-Lyte® 3/10,0.1% NP40, and 10 mM DTT.IEF gels were placed in the chamber containing the peptide solution. The IEF gels were initially rehydrated for 12 hours at 50 V. Focusing of the peptides was achieved by application of a linear voltage gradient starting at 250 V and reaching 8000 V in 2.5 hours. The gels were then exposed to 8000 V for 4.5 hours. Subsequently, the IEF gels were stained in the BioRad IEF gel staining solution and destained in a mixture of 10% acetic acid, 40% methanol, and 50% water.

[5] = target: T1, rCRFR1; test: Competitive binding to rCRFR1, SPA on HEK-293 membrane fractions with [125I-Tyr0]h/rCRF; conditions: binding affinities CRFR1 vs CRFR2
Method: as §1
Binding of CRF-like peptides to rCRFBP was carried out with an SPA assay in nickel-chelate-coated 96-well microtiter plates (Flash Plate PLUS™, NEN), which bound rCRFBP tagged with a C-terminal His6 sequence (rCRFBP-His6). The scintillator beads carrying the Ni 2+ ions for binding of the His tag were located at the inner surface of the wells of this microtiterplate. […] The plates were sealed and incubated for four hours at room temperature. The radioactivities in the microtiterplates were counted in a Wallac 1450 Microbeta scintillation counter by detection of the light emitted from the scintillator beads. In both SPA systems the detection of the radioligand.8 depended on its proximity to the beads containing the scintillator. […] The major portion of counted radioactivity (>70%) represented specific binding that was because of radiolabeled ligand specifically bound to CRFBP or CRFR. […] Binding data were analyzed using the Prism computer program (GraphPad Software, San Diego).

T2 sequence (Q60748 1-431 isoform Q60748-2): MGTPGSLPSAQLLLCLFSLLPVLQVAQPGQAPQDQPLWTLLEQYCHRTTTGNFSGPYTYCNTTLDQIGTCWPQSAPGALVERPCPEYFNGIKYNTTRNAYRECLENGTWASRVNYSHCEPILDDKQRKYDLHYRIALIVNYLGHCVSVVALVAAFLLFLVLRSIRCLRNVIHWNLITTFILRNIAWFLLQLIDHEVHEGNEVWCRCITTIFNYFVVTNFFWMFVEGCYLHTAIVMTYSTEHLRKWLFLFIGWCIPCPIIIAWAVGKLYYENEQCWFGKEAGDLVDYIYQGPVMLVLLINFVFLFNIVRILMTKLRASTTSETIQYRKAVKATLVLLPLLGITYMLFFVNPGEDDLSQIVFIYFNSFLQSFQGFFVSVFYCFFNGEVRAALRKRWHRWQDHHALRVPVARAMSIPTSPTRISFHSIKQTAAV

anti-sauvagine-30 [aSvg-30]
Emax [1]: 6.5% | Rel. intrinsic activity mCRFR2β [2]: 1.0 (0.9-1.1) % | Rel. potency of antagonist mCRFR2β [2]: 99 (98-99) %

α-helical CRF^9-41 [α-hel-CRF^9-41]
Emax [1]: 19% | Rel. intrinsic activity mCRFR2β [2]: 1.4 (1.2-1.5) % | Rel. potency of antagonist mCRFR2β [2]: 97 (96-97) % | change of oCRF-induced behavioral effects in plus-maze test ([3]; 120 pmol antagonist icv before 35 pmol oCRF): no significant change

CC[C@H](C)[C@H](NC(=O)[C@@H](NC(=O)[C@H](CC(=O)O)NC(=O)[C@H](CC(C)C)NC(=O)[C@H](CC(C)C)NC(=O)[C@H](CC(C)C)NC(=O)[C@H](CCCNC(=N)N)NC(=O)[C@H](CC(N)=O)NC(=O)[C@H](CC(N)=O)NC(=O)[C@H](C)NC(=O)[C@H](C)NC(=O)[C@H](CCC(N)=O)NC(=O)[C@H](CCC(N)=O)NC(=O)[C@H](CCCCN)NC(=O)[C@H](CCC(=O)O)NC(=O)[C@H](CCCCN)NC(=O)[C@H](CCC(=O)O)NC(=O)[C@H](CCC(N)=O)NC(=O)[C@H](CCCCN)NC(=O)[C@H](CCC(=O)O)NC(=O)[C@@H](NC(=O)[C@H](CCC(=O)O)NC(=O)[C@@H](NC(=O)[C@H](CCSC)NC(=O)[C@H](CCCCN)NC(=O)[C@H](CCCNC(=N)N)NC(=O)[C@H](CC(C)C)NC(=O)[C@H](CC(C)C)NC(=O)[C@H](CCC(=O)O)NC(=O)[C@H](CC(C)C)NC(=O)[C@H](CO)NC(=O)[C@H](CC(C)C)NC(=O)[C@H](CC(=O)O)NC(=O)[C@@H](NC(=O)[C@H](CO)NC(=O)[C@@H](NC(=O)[C@@H]1CCCN1C(=O)[C@@H]1CCCN1C(=O)CNC(=O)[C@@H]1CCC(=O)N1)[C@@H](C)CC)[C@@H](C)CC)[C@@H](C)CC)[C@@H](C)CC)[C@@H](C)O)C(N)=O [Svg, sauvagine]
Isoelectric point [4]: 5.1

h/rCRF
selectivity favoring CRFR1 (over CRFR2), factor [5]: 30

oCRF
effect on oCRF-elicited anxious behavior in elevated plus maze (Example 9) ([3]; 220 ng [E11]Ast icv, 10 min later 90 ng oCRF, threefold molar excess): elicited anxious behavior | anxiety-like behavior (open arm visits, % time in open arms) ([3]; icv 20 pmol (90 ng) oCRF): enhanced | locomotion (total distance crossed) in elevated plus-maze ([3]; icv 20 pmol (90 ng) oCRF): markedly decreased | behavior effects at higher agonist dose ([3]; icv 35 pmol (170 ng) oCRF): significantly enhanced
